Like-named read-outs stand apart in the source and are kept apart here.
Legend:
GST-MCL-1 = GST-MCL-1 (Homo sapiens, UniProt Q07820); experiment: TR-FRET MCL-1 binding assay (competition with probe F-Bak)
How it was run: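 Displacement of F-Bak from GST-MCL-1 is detected by time-resolved FRET with a Tb-labelled anti-GST antibody, with excitation 340/35 nm and emission 520/525 and 495/510 nm, after 2 hours at room temperature. Compounds were titrated in 11 three-fold steps starting at 25 μM final, in buffer alone or in 10% HS.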

[1] = tested on: AMO-1 human multiple myeloma tumor cell line; experiment: AMO-1 cell viability assay (CellTiter-Glo, 24 hours); assay type: cell-based; conditions: Homo sapiens, AMO1, 24 h, read-out: AMO-1 Viability IC50 (μM, 10% FBS), 10% FBS, 24 hours of compound treatment
[2] = tested on: NCI-H929 human multiple myeloma tumor cell line; experiment: NCI-H929 cell viability assay (CellTiter-Glo, 24 hours); assay type: cell-based; conditions: Homo sapiens, NCI-H929, 24 h, read-out: H929 Viability IC50 (μM, 10% FBS), 10% FBS, 24 hours of compound treatment
[3] = MCL-1 Binding Ki (nM, 10% HS), in the presence of 10% HS (human serum)
[4] = without HS, read-out: MCL-1 Binding Ki

GST-MCL-1, sequence (Q07820 whole entry): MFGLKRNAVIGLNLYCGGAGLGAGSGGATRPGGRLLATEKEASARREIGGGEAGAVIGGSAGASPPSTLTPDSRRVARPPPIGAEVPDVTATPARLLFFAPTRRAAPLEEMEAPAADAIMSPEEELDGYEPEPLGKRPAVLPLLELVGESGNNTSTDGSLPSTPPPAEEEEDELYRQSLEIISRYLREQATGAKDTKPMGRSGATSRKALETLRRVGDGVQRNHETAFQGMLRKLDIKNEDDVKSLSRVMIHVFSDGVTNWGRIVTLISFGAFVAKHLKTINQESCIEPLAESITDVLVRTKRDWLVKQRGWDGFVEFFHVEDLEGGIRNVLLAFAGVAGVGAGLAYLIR

SMILES	Ki (GST-MCL-1; [3]) [nM]	Ki (GST-MCL-1; [4]) [nM]	IC50 [1] [nM]	IC50 [2] [µM]
COCCOCCO[C@]1(c2nccc(COc3ccc4cc3C[C@H](C(=O)O)Oc3ncnc5sc(-c6ccc(F)cc6)c(c35)-c3c(C)c(Cl)c(c(Cl)c3C)O[C@H](CN3CCN(C)CC3)CO4)n2)CC[C@@H](OCC2COCCO2)CC1 (stereo partly drawn) [Example 121, (7R,16R)-19,23-dichloro-10-[(2-{(1r,4r)-4-[(1,4-dioxan-2-yl)methoxy]-1-[2-(2-methoxyethoxy)ethoxy]cyclohexyl}pyrimidin-4-yl)methoxy]-1-(4-fluorophenyl)-20,22-dimethyl-16-[(4-methylpiperazin-1-yl)methyl]-7,8,15,16-tetrahydro-18,21-etheno-9,13-(metheno)-6,14,17-trioxa-2-thia-3,5-diazacyclononadeca[1,2,3-cd]indene-7-carboxylic Acid]	0.231	0.052	5.08	0.00956
COCCOCCO[C@]1(c2nccc(COc3ccc4cc3C[C@H](C(=O)O)Oc3ncnc5sc(-c6ccc(F)cc6)c(c35)-c3c(C)c(Cl)c(c(Cl)c3C)O[C@H](CN3CCN(C)CC3)CO4)n2)CC[C@H](OCC2COCCO2)CC1 (stereo partly drawn) [Example 122, (7R,16R)-19,23-dichloro-10-[(2-{(1s,4s)-4-[(1,4-dioxan-2-yl)methoxy]-1-[2-(2-methoxyethoxy)ethoxy]cyclohexyl}pyrimidin-4-yl)methoxy]-1-(4-fluorophenyl)-20,22-dimethyl-16-[(4-methylpiperazin-1-yl)methyl]-7,8,15,16-tetrahydro-18,21-etheno-9,13-(metheno)-6,14,17-trioxa-2-thia-3,5-diazacyclononadeca[1,2,3-cd]indene-7-carboxylic Acid]	0.698	0.024	1.07	0.00277
Cc1c(Cl)c2c(Cl)c(C)c1-c1c(-c3ccc(F)cc3)sc3ncnc(c13)O[C@@H](C(=O)O)Cc1cc(ccc1OCc1ccnc(-c3ccc(OCC4COCCOCCOCCOCCOCCO4)cc3)n1)OC[C@@H](CN1CCN(C)CC1)O2 (stereo partly drawn) [Example 123, (7R,16R)-19,23-dichloro-1-(4-fluorophenyl)-10-[(2-{4-[(1,4,7,10,13,16-hexaoxacyclooctadecan-2-yl)methoxy]phenyl}pyrimidin-4-yl)methoxy]-20,22-dimethyl-16-[(4-methylpiperazin-1-yl)methyl]-7,8,15,16-tetrahydro-18,21-etheno-13,9-(metheno)-6,14,17-trioxa-2-thia-3,5-diazacyclononadeca[1,2,3-cd]indene-7-carboxylic Acid]	0.051	0.003	1.28	0.00467
Cc1c(Cl)c2c(Cl)c(C)c1-c1c(-c3ccc(F)cc3)sc3ncnc(c13)O[C@@H](C(=O)O)Cc1cc(ccc1OCc1ccnc(-c3ccc(CN4CCS(=O)(=O)CC4)cc3)n1)OC[C@@H](CN1CCN(C)CC1)O2 [Example 126, (7R,16R)-19,23-dichloro-10-[(2-{4-[(1,1-dioxo-1˜^6-thiomorpholin-4-yl)methyl]phenyl}pyrimidin-4-yl)methoxy]-1-(4-fluorophenyl)-20,22-dimethyl-16-[(4-methylpiperazin-1-yl)methyl]-7,8,15,16-tetrahydro-18,21-etheno-13,9-(metheno)-6,14,17-trioxa-2-thia-3,5-diazacyclononadeca[1,2,3-cd]indene-7-carboxylic Acid]	0.39	0.043	0.544	0.00169
COCCOCCOC[C@H]1CC=C(c2nccc(COc3ccc4cc3C[C@H](C(=O)O)Oc3ncnc5sc(-c6ccc(F)cc6)c(c35)-c3c(C)c(Cl)c(c(Cl)c3C)O[C@H](CN3CCN(C)CC3)CO4)n2)CC1 [Example 127, (7R,16R)-19,23-dichloro-1-(4-fluorophenyl)-10-({2-[(4R)-4-{[2-(2-methoxyethoxy)ethoxy]methyl}cyclohex-1-en-1-yl]pyrimidin-4-yl}methoxy)-20,22-dimethyl-16-[(4-methylpiperazin-1-yl)methyl]-7,8,15,16-tetrahydro-18,21-etheno-13,9-(metheno)-6,14,17-trioxa-2-thia-3,5-diazacyclononadeca[1,2,3-cd]indene-7-carboxylic acid]	0.339	0.028	0.124	0.000385
COCCOCCOC[C@@H]1CC=C(c2nccc(COc3ccc4cc3C[C@H](C(=O)O)Oc3ncnc5sc(-c6ccc(F)cc6)c(c35)-c3c(C)c(Cl)c(c(Cl)c3C)O[C@H](CN3CCN(C)CC3)CO4)n2)CC1 [Example 128, (7R,16R)-19,23-dichloro-1-(4-fluorophenyl)-10-({2-[(4S)-4-{[2-(2-methoxyethoxy)ethoxy]methyl}cyclohex-1-en-1-yl]pyrimidin-4-yl}methoxy)-20,22-dimethyl-16-[(4-methylpiperazin-1-yl)methyl]-7,8,15,16-tetrahydro-18,21-etheno-13,9-(metheno)-6,14,17-trioxa-2-thia-3,5-diazacyclononadeca[1,2,3-cd]indene-7-carboxylic Acid]	0.275	0.027	0.0939	0.000313
Cc1c(Cl)c2c(Cl)c(C)c1-c1c(-c3ccc(F)cc3)sc3ncnc(c13)O[C@@H](C(=O)O)Cc1cc(ccc1OCc1ccnc(-c3ccc(CN4CCOCCOCCOCCOCC4)cc3)n1)OC[C@@H](CN1CCN(C)CC1)O2 [Example 129, (7R,16R)-19,23-dichloro-1-(4-fluorophenyl)-20,22-dimethyl-16-[(4-methylpiperazin-1-yl)methyl]-10-[(2-{4-[(1,4,7,10-tetraoxa-13-azacyclopentadecan-13-yl)methyl]phenyl}pyrimidin-4-yl)methoxy]-7,8,15,16-tetrahydro-18,21-etheno-13,9-(metheno)-6,14,17-trioxa-2-thia-3,5-diazacyclononadeca[1,2,3-cd]indene-7-carboxylic Acid]	0.064	0.002	0.144	0.000562
COCCOCCOCCO[C@H]1CC[C@H](c2nccc(COc3ccc4cc3C[C@H](C(=O)O)Oc3ncnc5sc(C6CCC6)c(c35)-c3c(C)c(Cl)c(c(Cl)c3C)O[C@H](CN3CCN(C)CC3)CO4)n2)CC1 [Example 131, (7R,16R)-19,23-dichloro-1-cyclobutyl-10-({2-[(1r,4r)-4-{2-[2-(2-methoxyethoxy)ethoxy]ethoxy}cyclohexyl]pyrimidin-4-yl}methoxy)-20,22-dimethyl-16-[(4-methylpiperazin-1-yl)methyl]-7,8,15,16-tetrahydro-18,21-etheno-13,9-(metheno)-6,14,17-trioxa-2-thia-3,5-diazacyclononadeca[1,2,3-cd]indene-7-carboxylic Acid]	1.14	0.024	0.367	0.000585
CO[C@@H]1CO[C@H]2[C@@H]1OC[C@H]2OCCOCCOc1nccc(COc2ccc3cc2C[C@H](C(=O)O)Oc2ncnc4sc(-c5ccc(F)cc5)c(c24)-c2c(C)c(Cl)c(c(Cl)c2C)O[C@H](CN2CCN(C)CC2)CO3)n1 [Example 133, (7R,16R)-19,23-dichloro-1-(4-fluorophenyl)-10-({2-[2-(2-{[(3R,3aR,6R,6aR)-6-methoxyhexahydrofuro[3,2-b]furan-3-yl]oxy}ethoxy)ethoxy]pyrimidin-4-yl}methoxy)-20,22-dimethyl-16-[(4-methylpiperazin-1-yl)methyl]-7,8,15,16-tetrahydro-18,21-etheno-13,9-(metheno)-6,14,17-trioxa-2-thia-3,5-diazacyclononadeca[1,2,3-cd]indene-7-carboxylic Acid]	0.168	0.044	3.24	0.00879

Reference: US20250313572A1, “MACROCYCLIC MCL-1 INHIBITORS AND METHODS OF USE” (AbbVie Inc., priority 2017, published 2025)
